# Experimental data published in ChEMBL document CHEMBL3885861, “Open TG-GATES”.
# Species: Rattus norvegicus
# Assay: Open TG-GATES - Regimen: Daily Repeat
# Format: toxicity, organism-based, Sprague-Dawley
# Design: regimen Daily Repeat, gender Male, age 6 weeks
# Conditions: in vivo, po, 400 mg/kg, route gavage, dose level High; for APTT / Bas / Eos / Fbg / Hb / Ht / Lym / MCH / MCHC / MCV / Mono / Neu / PT / Plat / RBC / Ret / WBC: tissue Blood; for KIDNEY_L / KIDNEY_R / KIDNEY_TOTAL: tissue Kidney; for LIVER: tissue Liver; for A/G / ALP / ALT / AST / BUN / CRE / Ca / Cl / DBIL / GLC / IP / K / LDH / Na / PL / RALB / TBIL / TC / TG / TP / gamma-GTP: tissue Plasma
smiles,measurement,setting,value
Cc1cccc(C)c1OCC(C)N (configuration not stated) [MEXILETINE],TERMINAL_BW,"72 h, time 3 day",229.5 g
same,APTT,"72 h, time 3 day",21.1 s
same,Bas,"72 h, time 3 day",0%
same,Eos,"72 h, time 3 day",1%
same,Fbg,"72 h, time 3 day",337.4 mg/dL
same,Hb,"72 h, time 3 day",13.2 g/dL
same,Ht,"72 h, time 3 day",40.8%
same,Lym,"72 h, time 3 day",76.6%
same,MCH,"72 h, time 3 day",19.9 pg
same,MCHC,"72 h, time 3 day",32.5%
same,MCV,"72 h, time 3 day",61.3 fL
same,Mono,"72 h, time 3 day",2.2%
same,Neu,"72 h, time 3 day",19.6%
same,PT,"72 h, time 3 day",15.8 s
same,Plat,"72 h, time 3 day",111.4 x10_4/uL
same,RBC,"72 h, time 3 day",666.8 x10_4/ul
same,Ret,"72 h, time 3 day",5.4%
same,WBC,"72 h, time 3 day",88.4 x10_2/uL
same,KIDNEY_L,"72 h, time 3 day",1 g
same,KIDNEY_R,"72 h, time 3 day",1.1 g
same,KIDNEY_TOTAL,"72 h, time 3 day",2.1 g
same,LIVER,"72 h, time 3 day",10.3 g
same,A/G,"72 h, time 3 day",1.3
same,ALP,"72 h, time 3 day",1772.8 IU/L
same,ALT,"72 h, time 3 day",54 IU/L
same,AST,"72 h, time 3 day",75.6 IU/L
same,BUN,"72 h, time 3 day",13.8 mg/dL
same,CRE,"72 h, time 3 day",0.1 mg/dL
same,Ca,"72 h, time 3 day",10.5 mg/dL
same,Cl,"72 h, time 3 day",106.2 meq/L
same,DBIL,"72 h, time 3 day",0 mg/dL
same,GLC,"72 h, time 3 day",191.4 mg/dL
same,IP,"72 h, time 3 day",7.4 mg/dL
same,K,"72 h, time 3 day",4 meq/L
same,LDH,"72 h, time 3 day",170 IU/L
same,Na,"72 h, time 3 day",142.2 meq/L
same,PL,"72 h, time 3 day",155.6 mg/dL
same,RALB,"72 h, time 3 day",3.2 g/dL
same,TBIL,"72 h, time 3 day",0.008 mg/dL
same,TC,"72 h, time 3 day",86 mg/dL
same,TG,"72 h, time 3 day",87.4 mg/dL
same,TP,"72 h, time 3 day",5.6 g/dL
same,gamma-GTP,"72 h, time 3 day",1.4 IU/L
same,TERMINAL_BW,"[…], time 7 day",249.3 g
same,TERMINAL_BW,"[…], time 14 day",299.7 g
same,TERMINAL_BW,"[…], time 28 day",372.4 g
same,APTT,"[…], time 7 day",22.2 s
same,Bas,"[…], time 7 day",0%
same,Eos,"[…], time 7 day",0.4%
same,Fbg,"[…], time 7 day",343.8 mg/dL
same,Hb,"[…], time 7 day",13.8 g/dL
same,Ht,"[…], time 7 day",41.9%
same,Lym,"[…], time 7 day",79%
same,MCH,"[…], time 7 day",20.1 pg
same,MCHC,"[…], time 7 day",32.9%
same,MCV,"[…], time 7 day",61 fL
same,Mono,"[…], time 7 day",2%
same,Neu,"[…], time 7 day",17%
same,PT,"[…], time 7 day",16.4 s
same,Plat,"[…], time 7 day",111.8 x10_4/uL
same,RBC,"[…], time 7 day",687.2 x10_4/ul
same,Ret,"[…], time 7 day",4%
same,WBC,"[…], time 7 day",107.9 x10_2/uL
same,APTT,"[…], time 14 day",21.7 s
same,Bas,"[…], time 14 day",0%
same,Eos,"[…], time 14 day",1%
same,Fbg,"[…], time 14 day",292.2 mg/dL
same,Hb,"[…], time 14 day",12.9 g/dL
same,Ht,"[…], time 14 day",39.9%
same,Lym,"[…], time 14 day",75.8%
same,MCH,"[…], time 14 day",20.5 pg
same,MCHC,"[…], time 14 day",32.4%
same,MCV,"[…], time 14 day",63.2 fL
same,Mono,"[…], time 14 day",2.4%
same,Neu,"[…], time 14 day",20.6%
same,PT,"[…], time 14 day",16.5 s
same,Plat,"[…], time 14 day",108.6 x10_4/uL
same,RBC,"[…], time 14 day",632.4 x10_4/ul
same,Ret,"[…], time 14 day",7.4%
same,WBC,"[…], time 14 day",62.3 x10_2/uL
same,APTT,"[…], time 28 day",23.2 s
same,Bas,"[…], time 28 day",0%
same,Eos,"[…], time 28 day",1%
same,Fbg,"[…], time 28 day",334.4 mg/dL
same,Hb,"[…], time 28 day",15.5 g/dL
same,Ht,"[…], time 28 day",45.2%
same,Lym,"[…], time 28 day",76%
same,MCH,"[…], time 28 day",19.1 pg
same,MCHC,"[…], time 28 day",34.3%
same,MCV,"[…], time 28 day",55.6 fL
same,Mono,"[…], time 28 day",2.4%
same,Neu,"[…], time 28 day",19.4%
same,PT,"[…], time 28 day",16.1 s
same,Plat,"[…], time 28 day",101.2 x10_4/uL
same,RBC,"[…], time 28 day",813.6 x10_4/ul
same,Ret,"[…], time 28 day",2.4%
same,WBC,"[…], time 28 day",104.8 x10_2/uL
same,KIDNEY_L,"[…], time 7 day",1.1 g
same,KIDNEY_R,"[…], time 7 day",1.1 g
same,KIDNEY_TOTAL,"[…], time 7 day",2.3 g
same,KIDNEY_L,"[…], time 14 day",1.3 g
same,KIDNEY_R,"[…], time 14 day",1.3 g
same,KIDNEY_TOTAL,"[…], time 14 day",2.6 g
same,KIDNEY_L,"[…], time 28 day",1.5 g
same,KIDNEY_R,"[…], time 28 day",1.5 g
same,KIDNEY_TOTAL,"[…], time 28 day",3 g
same,LIVER,"[…], time 7 day",11.5 g
same,LIVER,"[…], time 14 day",13.9 g
same,LIVER,"[…], time 28 day",16.7 g
same,A/G,"[…], time 7 day",1.2
same,ALP,"[…], time 7 day",1505.6 IU/L
same,ALT,"[…], time 7 day",50.2 IU/L
same,AST,"[…], time 7 day",76 IU/L
same,BUN,"[…], time 7 day",18 mg/dL
same,CRE,"[…], time 7 day",0.2 mg/dL
same,Ca,"[…], time 7 day",10.9 mg/dL
same,Cl,"[…], time 7 day",104.6 meq/L
same,DBIL,"[…], time 7 day",0 mg/dL
same,GLC,"[…], time 7 day",180.6 mg/dL
same,IP,"[…], time 7 day",7.2 mg/dL
same,K,"[…], time 7 day",4.2 meq/L
same,LDH,"[…], time 7 day",130.4 IU/L
same,Na,"[…], time 7 day",143 meq/L
same,PL,"[…], time 7 day",168.4 mg/dL
same,RALB,"[…], time 7 day",3.1 g/dL
same,TBIL,"[…], time 7 day",0.004 mg/dL
same,TC,"[…], time 7 day",85.6 mg/dL
same,TG,"[…], time 7 day",138.2 mg/dL
same,TP,"[…], time 7 day",5.7 g/dL
same,gamma-GTP,"[…], time 7 day",1.2 IU/L
same,A/G,"[…], time 14 day",1.1
same,ALP,"[…], time 14 day",1631.8 IU/L
same,ALT,"[…], time 14 day",70.2 IU/L
same,AST,"[…], time 14 day",97.6 IU/L
same,BUN,"[…], time 14 day",19.4 mg/dL
same,CRE,"[…], time 14 day",0.2 mg/dL
same,Ca,"[…], time 14 day",10.4 mg/dL
same,Cl,"[…], time 14 day",105.8 meq/L
same,DBIL,"[…], time 14 day",0 mg/dL
same,GLC,"[…], time 14 day",185 mg/dL
same,IP,"[…], time 14 day",7.1 mg/dL
same,K,"[…], time 14 day",4.4 meq/L
same,LDH,"[…], time 14 day",185.4 IU/L
same,Na,"[…], time 14 day",141 meq/L
same,PL,"[…], time 14 day",182.6 mg/dL
same,RALB,"[…], time 14 day",3.1 g/dL
same,TBIL,"[…], time 14 day",0 mg/dL
same,TC,"[…], time 14 day",88 mg/dL
same,TG,"[…], time 14 day",186.8 mg/dL
same,TP,"[…], time 14 day",5.9 g/dL
same,gamma-GTP,"[…], time 14 day",2.2 IU/L
same,A/G,"[…], time 28 day",1.1
same,ALP,"[…], time 28 day",1359 IU/L
same,ALT,"[…], time 28 day",43.6 IU/L
same,AST,"[…], time 28 day",70 IU/L
same,BUN,"[…], time 28 day",18.2 mg/dL
same,CRE,"[…], time 28 day",0.2 mg/dL
same,Ca,"[…], time 28 day",10.5 mg/dL
same,Cl,"[…], time 28 day",104.2 meq/L
same,DBIL,"[…], time 28 day",0 mg/dL
same,GLC,"[…], time 28 day",183.8 mg/dL
same,IP,"[…], time 28 day",6.6 mg/dL
same,K,"[…], time 28 day",4.3 meq/L
same,LDH,"[…], time 28 day",144.6 IU/L
same,Na,"[…], time 28 day",142.2 meq/L
same,PL,"[…], time 28 day",180.4 mg/dL
same,RALB,"[…], time 28 day",3.1 g/dL
same,TBIL,"[…], time 28 day",0.01 mg/dL
same,TC,"[…], time 28 day",91.4 mg/dL
same,TG,"[…], time 28 day",162.6 mg/dL
same,TP,"[…], time 28 day",6.1 g/dL
same,gamma-GTP,"[…], time 28 day",1.8 IU/L
